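Growth conditions: 96-well plates. Treatment: test compound, 48 hours, 5 concentrations. Analysis: linear interpolation between bracketing concentrations; unreached endpoints set to highest concentration. GI50: concentration for 50% inhibition of growth.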 The source made the active and inactive calls. No stated cut-off is given here; in the data, active = GI50 up to about 1.1 µM and inactive = higher.
Legend:
Test in all cases: NCI anticancer screen, dose series, 48 h
CAKI-1 = test system: CAKI-1
COLO 205 = test system: COLO 205
HCC 2998 = test system: HCC 2998
HOP-62 = test system: HOP-62
IGROV-1 = test system: IGROV-1
M19-MEL = test system: M19-MEL
NCI-H460 = test system: NCI-H460
NCI-H522 = test system: NCI-H522
OVCAR-3 = test system: OVCAR-3
OVCAR-4 = test system: OVCAR-4
RPMI-8226 = test system: RPMI-8226
SF-295 = test system: SF-295
SK-MEL-5 = test system: SK-MEL-5
SN12C = test system: SN12C
SNB-19 = test system: SNB-19
SW-620 = test system: SW-620
TK-10 = test system: TK-10
BT-549 = test system: BT-549
MCF7 = test system: MCF7
NCI/ADR-RES = test system: NCI/ADR-RES

| Compound | GI50 (CAKI-1) | GI50 (COLO 205) | GI50 (HCC 2998) | GI50 (HOP-62) | GI50 (IGROV-1) | GI50 (M19-MEL) | GI50 (NCI-H460) | GI50 (NCI-H522) | GI50 (OVCAR-3) | GI50 (OVCAR-4) | GI50 (RPMI-8226) | GI50 (SF-295) | GI50 (SK-MEL-5) | GI50 (SN12C) | GI50 (SNB-19) | GI50 (SW-620) | GI50 (TK-10) | GI50 (BT-549) | GI50 (MCF7) | GI50 (NCI/ADR-RES) |
| --- | --- | --- | --- | --- | --- | --- | --- | --- | --- | --- | --- | --- | --- | --- | --- | --- | --- | --- | --- | --- |
| O=C(O)c1cc(-c2ccccc2O)nc2ccccc12 | > 100 µM (inactive) | > 100 µM (inactive) | > 100 µM (inactive) | > 100 µM (inactive) | > 100 µM (inactive) | > 100 µM (inactive) | > 100 µM (inactive) | > 100 µM (inactive) | > 100 µM (inactive) | > 100 µM (inactive) | > 100 µM (inactive) | > 100 µM (inactive) | > 100 µM (inactive) | > 100 µM (inactive) | > 100 µM (inactive) | > 100 µM (inactive) | > 100 µM (inactive) |  |  |  |
| CCC1=C(CC2NCCc3ccccc32)CC2c3cc(OC)c(OC)cc3CCN2C1 (centres undefined) | 0.473 µM (active) |  | 0.432 µM (active) | 0.627 µM (active) | 0.693 µM (active) | 0.627 µM (active) | 0.3 µM (active) | 0.316 µM (active) | 0.841 µM (active) | 0.237 µM (active) | 0.392 µM (active) | 0.565 µM (active) | 0.585 µM (active) | 0.5 µM (active) | 0.614 µM (active) | 0.384 µM (active) | 0.728 µM (active) | 2.14 µM (inactive) | 0.292 µM (active) | 1.3 µM (inactive) |
| O=c1c2ccccc2n2nnc3ccc(NCCNCCO)c1c32 | 1.84 µM (inactive) | 0.946 µM (active) | 1.51 µM (inactive) | 2.08 µM (inactive) | 2.47 µM (inactive) | 2.26 µM (inactive) | 0.679 µM (active) | 1.82 µM (inactive) | 1.7 µM (inactive) | 1.71 µM (inactive) | 1.82 µM (inactive) | 2.06 µM (inactive) | 1.53 µM (inactive) | 1.43 µM (inactive) | 3.05 µM (inactive) | 0.71 µM (active) | 2.79 µM (inactive) | 2.02 µM (inactive) | 3.24 µM (inactive) | 1.08 µM (active) |
| CC(C)(CN1CCCCC1)C(=O)/C=C/c1ccccc1 | 17.3 µM (inactive) | 16.4 µM (inactive) | 14.7 µM (inactive) | 24.7 µM (inactive) | 22.8 µM (inactive) | 18.9 µM (inactive) | 22.4 µM (inactive) | 13.2 µM (inactive) | 6.07 µM (inactive) | 26 µM (inactive) | 14.7 µM (inactive) | 15.5 µM (inactive) | 11.9 µM (inactive) | 15.4 µM (inactive) | 16.4 µM (inactive) | 11.6 µM (inactive) | 16.3 µM (inactive) |  |  |  |
| CCOC(=O)C(=O)Nc1nc2c(OCC)cccc2s1 | > 100 µM (inactive) | > 100 µM (inactive) | > 100 µM (inactive) | > 100 µM (inactive) | > 100 µM (inactive) | > 100 µM (inactive) | > 100 µM (inactive) | > 100 µM (inactive) | > 100 µM (inactive) | > 100 µM (inactive) | > 100 µM (inactive) | > 100 µM (inactive) | > 100 µM (inactive) | > 100 µM (inactive) | > 100 µM (inactive) | > 100 µM (inactive) | > 100 µM (inactive) |  |  |  |
| CS(=O)(=O)CSCSSCS(C)(=O)=O | 25.4 µM (inactive) | 18.2 µM (inactive) | > 100 µM (inactive) | 51.8 µM (inactive) | 51.8 µM (inactive) | > 57.9 µM (inactive) | 26.2 µM (inactive) | 14.9 µM (inactive) | 47.1 µM (inactive) | 33 µM (inactive) | 20.4 µM (inactive) | 18.2 µM (inactive) | 40.8 µM (inactive) | 29.2 µM (inactive) | 74.3 µM (inactive) | 16.8 µM (inactive) | > 90.6 µM (inactive) |  |  |  |
| O=C(c1ccccc1)C(c1ccccc1)C1(O)C(=O)Nc2ccccc21 (centres undefined) | > 100 µM (inactive) | > 100 µM (inactive) | > 100 µM (inactive) | > 100 µM (inactive) | > 100 µM (inactive) | > 100 µM (inactive) | > 100 µM (inactive) | > 100 µM (inactive) | > 100 µM (inactive) | > 100 µM (inactive) | > 100 µM (inactive) | > 100 µM (inactive) | > 100 µM (inactive) | > 100 µM (inactive) | > 100 µM (inactive) | > 100 µM (inactive) | > 100 µM (inactive) |  |  |  |
